For seven molecules, TGI results are on record in PubChem BioAssay (NCI).

The structures appear in SMILES notation.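 Briefly, cells in 96-well plates were exposed to five compound concentrations for 48 h, and endpoints were estimated by linear interpolation. TGI: concentration producing complete growth inhibition.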

Among the test systems are HCT-116 colon; HCT-15 colon; K-562 leukemia; KM12 colon; LOX IMVI melanoma; PC-3 prostate; SF-268 CNS; SF-295 CNS; SF-539 CNS; SK-OV-3 ovarian; SN12C renal; SR leukemia; T-47D breast; TK-10 renal; U251 CNS; UO-31 renal; M14 melanoma; NCI-H522 lung; RPMI-8226 leukemia; RXF 393 renal.
Common to all, as to experiment: NCI anticancer screen, dose series, 48 h

With `Cc1ccc(N(C(=O)Nc2ccc(F)c(Cl)c2)C2=NCC(C)S2)cc1` (configuration not stated), the TGI in the experiment on HCT-116 colon, in the experiment with HCT-15 colon, with K-562 leukemia, in the experiment with KM12 colon, in the experiment on LOX IMVI melanoma and in the experiment with PC-3 prostate was over 100 µM each time. The TGI in the experiment with SF-268 CNS, with SF-295 CNS, with SF-539 CNS, in the experiment with SK-OV-3 ovarian, with SN12C renal and in the experiment on SR leukemia was over 100 µM each time. Also, the TGI in the experiment on T-47D breast, in the experiment with TK-10 renal, in the experiment with U251 CNS and with UO-31 renal was over 100 µM in each case.

For `COC(=O)C(Cc1ccc(Oc2cc(CC(NC(=O)c3ccccc3)C(=O)OC)ccc2OC)cc1)NC(=O)c1ccccc1` (configuration not stated), the TGI with HCT-116 colon was over 100 µM; in the experiment on HCT-15 colon, over 100 µM; with K-562 leukemia, over 100 µM; in the experiment on KM12 colon, over 100 µM; with LOX IMVI melanoma it was over 71.6 µM; in the experiment with M14 melanoma it was 20.9 µM. The TGI was 27.2 µM in the experiment on NCI-H522 lung; over 85.8 µM in the experiment with PC-3 prostate; over 69.3 µM with RPMI-8226 leukemia; 28.5 µM in the experiment with RXF 393 renal; 48.9 µM in the experiment on SF-268 CNS; over 100 µM with SF-295 CNS. Also, the TGI in the experiment with SF-539 CNS is over 60.2 µM; in the experiment on SK-OV-3 ovarian, over 100 µM; in the experiment on SN12C renal, 21.3 µM; in the experiment on T-47D breast, over 51.4 µM; in the experiment with TK-10 renal it was over 59.8 µM; with U251 CNS, over 100 µM. Besides, the TGI in the experiment on UO-31 renal was 24.2 µM.

`CCOC(=O)/C(=C\c1ccc(C#N)cc1)C(C)=O`: the TGI was 57.3 µM in the experiment on HCT-116 colon; 40 µM in the experiment with HCT-15 colon; over 100 µM in the experiment with K-562 leukemia; 43 µM with KM12 colon; 34.5 µM in the experiment with LOX IMVI melanoma; 95.1 µM in the experiment with M14 melanoma. In addition, the TGI was 24.9 µM in the experiment with NCI-H522 lung; 39.1 µM in the experiment on PC-3 prostate; 54.5 µM in the experiment with RPMI-8226 leukemia; 30.6 µM in the experiment on RXF 393 renal; 87.2 µM in the experiment on SF-268 CNS; over 100 µM in the experiment with SF-295 CNS. For the same molecule, the TGI in the experiment with SF-539 CNS was over 100 µM; in the experiment on SK-OV-3 ovarian, over 100 µM; in the experiment with SN12C renal, 62.8 µM; with T-47D breast, 68.2 µM; in the experiment with TK-10 renal it was 57.1 µM; with U251 CNS, 32.7 µM. This molecule yielded a TGI with UO-31 renal of 28 µM.

`CC(C)=c1sc(=C(C)C)c2c1=NC(C)(C)N=2`: the TGI in the experiment on HCT-116 colon, with HCT-15 colon, in the experiment on KM12 colon, with LOX IMVI melanoma, with M14 melanoma and in the experiment with NCI-H522 lung was over 100 µM in each case. The TGI with PC-3 prostate, in the experiment with RPMI-8226 leukemia, in the experiment with RXF 393 renal, with SF-268 CNS, in the experiment on SF-295 CNS and in the experiment with SF-539 CNS was over 100 µM each time. Also, the TGI with SK-OV-3 ovarian, in the experiment on SN12C renal, with T-47D breast, in the experiment with TK-10 renal and with U251 CNS was over 100 µM in each case.

As to `CC1=C(C)C1[N+](=O)[O-]`, the TGI in the experiment on HCT-116 colon, in the experiment on HCT-15 colon, in the experiment with K-562 leukemia, in the experiment on KM12 colon, in the experiment with LOX IMVI melanoma and with M14 melanoma was over 100 µM in each case. Besides, the TGI in the experiment on NCI-H522 lung, with PC-3 prostate, in the experiment with RPMI-8226 leukemia, with RXF 393 renal, in the experiment with SF-268 CNS and with SF-295 CNS was over 100 µM in each case. In addition, the TGI in the experiment with SF-539 CNS, with SK-OV-3 ovarian, in the experiment on SN12C renal, in the experiment on T-47D breast, in the experiment on TK-10 renal and with U251 CNS was over 100 µM in each case. In addition, the TGI in the experiment with UO-31 renal was over 100 µM.

`Cc1ccc(C2=C(C#N)C(=O)N3CCN=C3S2)cc1`: the TGI in the experiment with HCT-116 colon, in the experiment on HCT-15 colon, with K-562 leukemia, in the experiment with KM12 colon, in the experiment on LOX IMVI melanoma and in the experiment with M14 melanoma was over 100 µM throughout. Moreover, the TGI in the experiment with NCI-H522 lung, with PC-3 prostate, in the experiment on RXF 393 renal, in the experiment on SF-295 CNS, in the experiment on SF-539 CNS and in the experiment on SK-OV-3 ovarian was over 100 µM in each case. In addition, the TGI in the experiment on SN12C renal, in the experiment with SR leukemia, in the experiment on T-47D breast, in the experiment on TK-10 renal, in the experiment with U251 CNS and in the experiment on UO-31 renal was over 100 µM in each case.

Take `CN(N)/N=N/c1nc[nH]c1[N+](=O)[O-]`: the TGI in the experiment on HCT-116 colon was over 100 µM; with HCT-15 colon, over 100 µM; with K-562 leukemia, 73 µM; in the experiment with KM12 colon, over 100 µM; with LOX IMVI melanoma, over 100 µM; in the experiment on M14 melanoma it was over 100 µM. Also, the TGI in the experiment with NCI-H522 lung is over 100 µM; in the experiment on PC-3 prostate, over 100 µM; in the experiment with RPMI-8226 leukemia, 57.3 µM; with RXF 393 renal, over 100 µM; in the experiment on SF-268 CNS it was over 100 µM; in the experiment with SF-295 CNS, over 100 µM. The TGI in the experiment with SF-539 CNS, in the experiment on SK-OV-3 ovarian, in the experiment on SN12C renal, with T-47D breast, in the experiment on TK-10 renal and with U251 CNS was over 100 µM in each case. The molecule further showed a TGI with UO-31 renal of over 100 µM.
